Patent USRE42013E1, “Macrocyclic modulators of the ghrelin receptor” (Tranzyme Pharma Inc., priority 2003, dated 2010)
Where two headings read alike, the source gives them in different places.

How the values were obtained:
[1] = target: human ghrelin receptor (hGHS-R1a) (Homo sapiens, UniProt Q92847); test: cell-based
Description: B. Aequorin Functional Assay (Ghrelin Receptor)
This cell line is typically constructed by transfection of the human ghrelin receptor into CHO-K1 cells co-expressing Gα16 and the mitochondrially targeted Aequorin (Ref #ES-WT-A5). • 1. […] Assay buffer: DMEM (Dulbecco's Modified Eagles Medium) containing 0.1% BSA (bovine serum albumin; pH 7.0). • 3. Coelenterazine (Molecular Probes, Leiden, The Netherlands). Final test concentrations (N=8) for compounds of the invention: 10, 1, 0.3, 0.1, 0.03, 0.01, 0.003, 0.001 μM. Compound Handling
Assay plates were then prepared by appropriate dilution in DMEM medium containing 0.1% BSA. Under these conditions, the maximal final DMSO concentration in the assay was <0.6%.
AequoScreen™ cells were collected from culture plates with Ca^2+ and Mg^2+-free phosphate buffered saline (PBS) supplemented with 5 mM EDTA, pelleted for 2 min at 1000×g, re-suspended in DMEM—Ham's F12 containing 0.1% BSA at a density of 5×10^6 cells/mL, and incubated O/N at rt in the presence of 5 μM coelenterazinc. After loading, cells were diluted with assay buffer to a concentration of 5×10^5 cells/mL.
For agonist testing, 50 μL of the cell suspension was mixed with 50 μL of the appropriate concentration of test compound or ghrelin (reference agonist) in 96-well plates (duplicate samples). Ghrelin (reference agonist) was tested at several concentrations concurrently with the test compounds in order to validate the experiment. The emission of light resulting from receptor activation in response to ghrelin or test compounds was recorded using the Hamamatsu FDSS 6000 reader (Hamamatsu Photonics K.K., Japan).
Analysis and Expression of Results
Results were expressed as Relative Light Units (RLU). […] EC50, Hill slope and % Emax values are reported.
Key Aspects of Method • 1. Assay performed on CHO-K1 cells expressing the transfected, cloned human ghrelin receptor (hGHS-R1a) and Gα16. • 2. Suspended cells incubated O/N with coelenterazine. • 3. Stimulation of hGHS-R1a activates Gα16, causing intercellular Ca2+ release which ultimately leads to the oxidation of coelenterazine and the emission of a quantitative luminescent signal. • 4. Ghrelin was used as the positive control. • 5.

[2] = target: T1, human growth hormone secretagogue receptor (hGHS-R1a) (Homo sapiens, UniProt Q92847); test: Competitive radioligand binding assay (ghrelin receptor), [125I]-ghrelin displacement
T1 construct: purchased PerkinElmer BioSignal #RBHGHSM, lot#1887; host or cells: HEK-293, stably transfected
Experimental: The competitive binding assay at the human growth hormone secretagogue receptor (hGHS-R1a) was carried out analogously to assays described in the literature.
Multiscreen Harvest plates-GF/C (Millipore, #MAHFC1H60) • 4. […] Bottom seal (Millipore, #MATAH0P00) • 7. […] Binding Buffer: 25 mM Hepes (pH 7.4), 1 mM CaCl2, 5 mM MgCl2, 2.5 mM EDTA, 0.4% BSA Assay Volumes
Competition experiments were performed in a 300 μl filtration assay format. • 1. 220 μL of membranes diluted in binding buffer • 2. 40 μL of compound diluted in binding buffer • 3. […] Compound Handling
Compounds were provided frozen on dry ice at a stock concentration of 10 mM diluted in 100% DMSO and stored at −80° C. until the day of testing. On the test day, compounds were allowed to thaw at rt O/N and then diluted in assay buffer according to the desired test concentrations.
Plates were sealed with TopSeal-A, vortexed gently and incubated at rt for 30 min. The reaction was arrested by filtering samples through Multiscreen Harvest plates (pre-soaked in 0.5% polyethyleneimine) using a Tomtec Harvester, washed 9 times with 500 μL of cold 50 mM Tris-HCl (pH 7.4, 4° C.), and then plates were air-dried in a fumehood for 30 min. A bottom seal was applied to the plates prior to the addition of 25 μL of MicroScint-0 to each well. […] Results were expressed as counts per minute (cpm).
Data were analyzed by GraphPad Prism (GraphPad Software, San Diego, Calif.) using a variable slope non-linear regression analysis.
Compound structures for Tables 3A, 3B and 3D are presented with the various groups as defined for the general structure of formula I. For Tables 3B and 3D, in all entries, m, n and p are 0; X, Z1 and Z2 are each NH. For Table 3B, R1 is H for all entries. The tethers (T) are illustrated with the bonding to X and Z2 as indicated. The compounds themselves are shown for Table 3C.
• 1. […] Key Aspects of Method • 1. […] Results

[3] = Table 4, binding at human ghrelin receptor, TFA salts unless otherwise noted, read-out: Ki
[4] = binding activity at the human ghrelin receptor, [125I]-ghrelin displacement, hGHS-R1a/HEK-293 membranes, read-out: Ki
[5] = Table 3B, binding at human ghrelin receptor, [125I]-ghrelin displacement, read-out: Ki
[6] = [125I]-ghrelin displacement, hGHS-R1a HEK-293 membranes, read-out: Binding Activity at the Human Ghrelin Receptor (Ki)

T1 sequence (Q92847 whole entry): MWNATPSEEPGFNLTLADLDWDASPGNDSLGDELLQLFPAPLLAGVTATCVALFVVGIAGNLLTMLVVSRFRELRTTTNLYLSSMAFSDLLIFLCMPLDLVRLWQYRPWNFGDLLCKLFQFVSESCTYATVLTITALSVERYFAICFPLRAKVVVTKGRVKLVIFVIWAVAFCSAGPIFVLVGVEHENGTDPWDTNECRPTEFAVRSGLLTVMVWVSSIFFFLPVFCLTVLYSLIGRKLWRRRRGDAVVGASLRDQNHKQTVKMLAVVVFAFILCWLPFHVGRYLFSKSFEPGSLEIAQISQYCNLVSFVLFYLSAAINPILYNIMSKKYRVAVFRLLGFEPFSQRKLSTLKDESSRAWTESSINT
Chain of human ghrelin receptor (hGHS-R1a) (Q92847 whole entry): as above

EC50 [1] [nM]	Ki [2, 3] [nM]	Ki [2, 4] [nM]	Ki [2, 5] [nM]	Ki [2, 6] [nM]	SMILES
100 to 1000	10 to 100	10 to 100			CCC(C)C1NCCOc2ccccc2CCCNC(=O)C(Cc2cccnc2)NC(=O)C(C)N(C)C1=O (stereo not shown) [compound 170]
100 to 1000	0.1 to 10	10 to 100			CCCC1NCCOc2ccccc2C=CCNC(=O)C(Cc2ccccc2)NC(=O)C(C)N(C)C1=O (stereo not shown) [compound 39]
1 to 100	10 to 100	10 to 100			CCC(C)C1NCCOc2ccccc2CCCNC(=O)C(Cc2ccc(-c3ccccc3)cc2)NC(=O)C(C)N(C)C1=O (stereo not shown) [compound 28]
100 to 1000	10 to 100	10 to 100			CCCC1NCCOc2ccccc2C=CCNC(=O)C(Cc2ccccc2)NC(=O)CN(C)C1=O (stereo not shown) [compound 11]
100 to 1000	100 to 1000			100 to 10000	CCC(C)C1NCCc2ccccc2CCCNC(=O)C(Cc2ccccc2)NC(=O)C(C)N(C)C1=O (stereo not shown) [compound 214]
100 to 1000	100 to 1000			100 to 10000	CCC(C)C1NCCCc2ccccc2C=CCCNC(=O)C(Cc2ccccc2)NC(=O)C(C)N(C)C1=O (stereo not shown) [compound 191]
100 to 1000	10 to 100			10 to 100	CCC(C)C1NCCCc2ccccc2CCCCNC(=O)C(Cc2ccccc2)NC(=O)C(C)N(C)C1=O (stereo not shown) [compound 192]
		100 to 10000			CCC[C@@H]1NCCOc2ccccc2CCCNC(=O)[C@@H](Cc2ccccc2)NC(=O)CN(CC)C1=O [compound 5]
	10 to 100	10 to 100			CCC(C)C1NCCOc2ccccc2CCCNC(=O)C(Cc2cccs2)NC(=O)C(C)N(C)C1=O (stereo not shown) [compound 34]
		> 10000			CCCC1NCCOc2ccccc2CCCNC(=O)C(Cc2ccccc2)NC(=O)C(CCC(=O)O)NC1=O (stereo not shown) [compound 71]

Second part, the molecule before the results:

SMILES	EC50 [1] [nM]	Ki [2, 3] [nM]	Ki [2, 4] [nM]	Ki [2, 5] [nM]	Ki [2, 6] [nM]
CC1C(=O)NC(Cc2ccc(F)cc2)C(=O)NCC#Cc2ccccc2OCCNC(C2CC2)C(=O)N1C (stereo not shown) [compound 354]	1 to 100	10 to 100		< 100	
CCC(C)C1NCc2ccccc2CC=CCCNC(=O)C(Cc2ccccc2)NC(=O)C(C)N(C)C1=O (stereo not shown) [compound 195]	1 to 100	10 to 100			10 to 100
CC1COc2ccccc2CCCNC(=O)C(Cc2ccc(F)cc2)NC(=O)C(C)N(C)C(=O)C(C2CC2)N1 (stereo not shown) [compound 394]	100 to 1000	0.1 to 10		0.1 to 10	
CCC(C)C1NCc2ccccc2CCCCCNC(=O)C(Cc2ccccc2)NC(=O)C(C)N(C)C1=O (stereo not shown) [compound 38]	100 to 1000	10 to 100	10 to 100		
CCC(C)C1NCc2ccccc2CC=CCNC(=O)C(Cc2ccccc2)NC(=O)C(C)N(C)C1=O (stereo not shown) [compound 193]	100 to 1000	100 to 1000			100 to 10000
COc1ccc(CC2NC(=O)C3(CCCC3)NC(=O)C(CC(C)C)NCCOc3ccccc3C=CCNC2=O)cc1 (stereo not shown) [compound 156]	1 to 100	10 to 100	10 to 100		
CC1C(=O)NC(Cc2c(F)c(F)c(F)c(F)c2F)C(=O)NCCCc2ccccc2OCCNC(C2CC2)C(=O)N1C (stereo not shown) [compound 318]	1 to 100	0.1 to 10		0.1 to 10	
CCC(C)C1NCCCNCCNC(=O)C(Cc2cccc(Cl)c2)NC(=O)C2(CCCC2)NC1=O (stereo not shown) [compound 390]				100 to 10000	
CC(C)CC1NCCOc2ccccc2C=CCNC(=O)C(C(c2ccccc2)c2ccccc2)NC(=O)C2(CCCC2)NC1=O (stereo not shown) [compound 158]			> 1000		
CCC(C)C1NCCOCC=CCCNC(=O)C(Cc2cccc(Cl)c2)NC(=O)C2(CCCC2)NC1=O (stereo not shown) [compound 360]				100 to 10000	
N#Cc1ccccc1CC1NCCOc2ccccc2C=CCNC(=O)C(Cc2cccc(Cl)c2)NC(=O)C2(CCCC2)NC1=O (stereo not shown) [compound 342]				100 to 10000	
CCC(C)C1NCCOc2ccccc2C2CC2CNC(=O)C(Cc2cccc(Cl)c2)NC(=O)C2(CCCC2)NC1=O (stereo not shown) [compound 387]				100 to 10000	
CCC(C)C1NCCOc2ccccc2CC(C)CNC(=O)C(Cc2cccc(Cl)c2)NC(=O)C2(CCCC2)NC1=O (stereo not shown) [compound 392]				< 100	
CCC(C)C1NCCCCc2ccccc2CCNC(=O)C(Cc2ccccc2)NC(=O)C(C)N(C)C1=O (stereo not shown) [compound 180]			100 to 10000		
CCC(C)C1NCCCCC=CCCNC(=O)C(Cc2ccccc2)NC(=O)C(C)N(C)C1=O (stereo not shown) [compound 183]			> 10000		
CCC(C)C1NCCOc2ccccc2C=CCNC(=O)C(Cc2cccc(Br)c2)NC(=O)C2(CCCC2)NC1=O (stereo not shown) [compound 326]				< 100	
